From US11173146B2, “Selective activators of the intermediate conductance CA2+activated K+ channel KCa3.1 and their methods of use” (The Regents of the University of California, priority 2014, dated 2021)
Read-outs that look alike come from different tables or passages of the source.

Key:
hKCa1.1 = biological target: T1, hKCa1.1 (Homo sapiens, UniProt Q12791); test: KCa1.1 current modulation (QPatch); assay type: cell-based
T1 construct: host or cells: HEK-293

mKV1.3 = biological target: T2, mKV1.3 (Mus musculus, UniProt P16390); test: KV1.3 current inhibition (L929 cells); assay type: cell-based
T2 construct: expressed in transfected cells; host or cells: L929
Excerpt: Cells, Cell lines and Clones. HEK-293 cells stably expressing hKCa2.1, rKCa2.2 and hKCa3.1 were obtained from Khaled Houamed (University of Chicago, Ill.) in 2002 and have been maintained in the Wulff laboratory at the University of California since then. The cloning of hKCa2.3 (19 CAG repeats) and hKCa3.1 has been previously described (Wulff et al., 2000). The hKCa2.3 clone was later stably expressed in COS-7 cells at Aurora Biosciences Corp., San Diego, Calif. […]
Electrophysiology. […] For manual experiments COS-7, HEK-293 or L929 cells were trypsinized, plated onto poly-L-lysine coated coverslips and typically recorded from between 20 min and 4 h after plating. […] Free Ca^2+ concentrations were calculated with MaxChelator assuming a temperature of 25° C., a pH of 7.2 and an ionic strength of 160 mM. To reduce contaminating currents from native chloride channels in COS-7 cells, KCa2.3 currents were recorded with an internal pipette solution containing (in mM): 145 K^+ aspartate, 2 MgCl2, 10 HEPES, 10 EGTA and 7.4 CaCl2 (500 nM free Ca^2+), pH 7.2, 290-310 mOsm. […] KV2.1, Kv1.3, and KV3.1 currents were recorded in normal Ringer solution with a Ca^2+-free KF-based pipette solution as previously described (Schmitz et al., 2005). HERG (KV11.1) currents were recorded with a 2-step pulse from −80 mV first to 20 mV for 1 sec and then to −50 mV for 1 sec. […]

mNaV1.2 = biological target: T3, mNaV1.2 (Mus musculus, UniProt B1AWN6); test: NaV1.2 current inhibition (N1E-115 cells); assay type: cell-based
T3 construct: NaV1.2 currents from N1E-115 cells; host or cells: N1E-115 mouse neuroblastoma

hNaV1.4 = biological target: T4, hNaV1.4 (Homo sapiens, UniProt P35499); test: NaV1.4 current inhibition (HEK-293); assay type: cell-based; details: HEK293
T4 construct: host or cells: HEK-293

hCaV1.2 = biological target: T5, hCaV1.2 (Homo sapiens, UniProt Q13936); test: CaV1.2 current inhibition (HEK-293); assay type: cell-based; details: HEK293
T5 construct: host or cells: HEK-293

[1] = Pharmacokinetics in mice (UPLC/MS); assay type: in vivo, mouse; design: distribution from blood into tissue / oral availability: dose or concentration left out as unconfirmed; details: for half-life: iv, 10 mg/kg i.v.
Excerpt: Pharmacokinetics. Twelve week-old male C57BI/6Jmice were purchased from Charles River Laboratories (Wilmington, Mass.) and housed in microisolator cages with rodent chow and autoclaved water ad libitum. All experiments were in accordance with National Institutes of Health guidelines and approved by the University of California, Davis, Institutional Animal Care and Use Committee. […] At various time points after the injection blood was collected into EDTA blood sample collection tubes either from the saphenous vein or by cardiac puncture under deep isoflurane anesthesia. Following the cardiac puncture mice were sacrificed by cutting the heart and then the brain was removed. Individual mice were typically used for 3 times points (2 blood collections from the saphenous vein plus the terminal blood collection). Plasma was separated by centrifugation and plasma and brain samples were stored at −80 °C pending analysis. Brain samples were homogenized in 1 ml of H2O with a Brinkman Kinematica PT 1600E homogenizer and the protein precipitated with 1 ml of acetonitrile. The samples were then centrifuged at 3000 rpm and supernatants concentrated to 1 ml. Plasma and homogenized brain samples were purified using C18 solid phase extraction cartridges (ThermoFisher Scientific, Waltham, Mass., USA) preconditioned with acetonitrile followed by 1 ml of water. The loaded column was washed with 2 ml of water. […] Eluted fractions were dried under nitrogen and reconstituted in acetonitrile. LC/MS analysis was performed with a Waters Acquity UPLC (Waters, New York, N.Y.) equipped with a Acquity UPLC BEH 1.7 μm RP-18 column (Waters, New York, N.Y.) interfaced to a TSQ Quantum Access Max mass spectrometer (MS) (ThermoFisher Scientific, Waltham, Mass., USA). The isocratic mobile phase consisted of 80% acetonitrile and 20% water, both containing 0.1% formic acid with a flow rate of 0.25 ml/min.

T1 sequence (Q12791 whole entry): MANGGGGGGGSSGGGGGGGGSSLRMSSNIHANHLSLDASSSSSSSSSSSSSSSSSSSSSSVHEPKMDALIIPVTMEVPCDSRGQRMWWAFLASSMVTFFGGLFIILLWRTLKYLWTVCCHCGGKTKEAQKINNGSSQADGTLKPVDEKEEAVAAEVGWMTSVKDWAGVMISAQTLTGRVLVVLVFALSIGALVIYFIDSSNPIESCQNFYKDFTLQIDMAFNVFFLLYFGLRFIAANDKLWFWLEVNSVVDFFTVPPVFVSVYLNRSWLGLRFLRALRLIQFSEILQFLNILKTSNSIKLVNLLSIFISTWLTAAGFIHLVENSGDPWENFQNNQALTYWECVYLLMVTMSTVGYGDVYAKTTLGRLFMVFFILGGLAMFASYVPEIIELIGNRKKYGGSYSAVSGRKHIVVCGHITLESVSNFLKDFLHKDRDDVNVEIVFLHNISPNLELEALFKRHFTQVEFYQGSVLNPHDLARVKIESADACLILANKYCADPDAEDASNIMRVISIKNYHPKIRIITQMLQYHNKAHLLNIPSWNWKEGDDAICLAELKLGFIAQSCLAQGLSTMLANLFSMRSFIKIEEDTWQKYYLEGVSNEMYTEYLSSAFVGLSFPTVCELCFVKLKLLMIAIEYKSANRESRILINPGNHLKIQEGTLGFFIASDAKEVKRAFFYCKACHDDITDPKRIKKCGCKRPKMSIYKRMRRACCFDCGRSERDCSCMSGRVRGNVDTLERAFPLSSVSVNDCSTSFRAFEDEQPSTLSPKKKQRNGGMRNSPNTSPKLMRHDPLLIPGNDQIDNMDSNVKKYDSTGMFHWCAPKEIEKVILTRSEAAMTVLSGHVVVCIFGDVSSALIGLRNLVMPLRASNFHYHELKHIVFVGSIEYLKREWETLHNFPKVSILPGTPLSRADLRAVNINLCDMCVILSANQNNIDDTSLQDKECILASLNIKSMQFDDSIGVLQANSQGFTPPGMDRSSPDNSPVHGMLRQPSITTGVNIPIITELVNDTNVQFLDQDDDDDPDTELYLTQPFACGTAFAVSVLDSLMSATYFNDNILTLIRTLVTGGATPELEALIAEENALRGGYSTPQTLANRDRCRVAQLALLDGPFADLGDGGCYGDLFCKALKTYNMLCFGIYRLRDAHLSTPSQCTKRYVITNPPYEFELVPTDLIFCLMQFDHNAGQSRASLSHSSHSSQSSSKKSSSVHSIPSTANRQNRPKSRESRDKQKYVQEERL
T3 sequence (B1AWN6 whole entry): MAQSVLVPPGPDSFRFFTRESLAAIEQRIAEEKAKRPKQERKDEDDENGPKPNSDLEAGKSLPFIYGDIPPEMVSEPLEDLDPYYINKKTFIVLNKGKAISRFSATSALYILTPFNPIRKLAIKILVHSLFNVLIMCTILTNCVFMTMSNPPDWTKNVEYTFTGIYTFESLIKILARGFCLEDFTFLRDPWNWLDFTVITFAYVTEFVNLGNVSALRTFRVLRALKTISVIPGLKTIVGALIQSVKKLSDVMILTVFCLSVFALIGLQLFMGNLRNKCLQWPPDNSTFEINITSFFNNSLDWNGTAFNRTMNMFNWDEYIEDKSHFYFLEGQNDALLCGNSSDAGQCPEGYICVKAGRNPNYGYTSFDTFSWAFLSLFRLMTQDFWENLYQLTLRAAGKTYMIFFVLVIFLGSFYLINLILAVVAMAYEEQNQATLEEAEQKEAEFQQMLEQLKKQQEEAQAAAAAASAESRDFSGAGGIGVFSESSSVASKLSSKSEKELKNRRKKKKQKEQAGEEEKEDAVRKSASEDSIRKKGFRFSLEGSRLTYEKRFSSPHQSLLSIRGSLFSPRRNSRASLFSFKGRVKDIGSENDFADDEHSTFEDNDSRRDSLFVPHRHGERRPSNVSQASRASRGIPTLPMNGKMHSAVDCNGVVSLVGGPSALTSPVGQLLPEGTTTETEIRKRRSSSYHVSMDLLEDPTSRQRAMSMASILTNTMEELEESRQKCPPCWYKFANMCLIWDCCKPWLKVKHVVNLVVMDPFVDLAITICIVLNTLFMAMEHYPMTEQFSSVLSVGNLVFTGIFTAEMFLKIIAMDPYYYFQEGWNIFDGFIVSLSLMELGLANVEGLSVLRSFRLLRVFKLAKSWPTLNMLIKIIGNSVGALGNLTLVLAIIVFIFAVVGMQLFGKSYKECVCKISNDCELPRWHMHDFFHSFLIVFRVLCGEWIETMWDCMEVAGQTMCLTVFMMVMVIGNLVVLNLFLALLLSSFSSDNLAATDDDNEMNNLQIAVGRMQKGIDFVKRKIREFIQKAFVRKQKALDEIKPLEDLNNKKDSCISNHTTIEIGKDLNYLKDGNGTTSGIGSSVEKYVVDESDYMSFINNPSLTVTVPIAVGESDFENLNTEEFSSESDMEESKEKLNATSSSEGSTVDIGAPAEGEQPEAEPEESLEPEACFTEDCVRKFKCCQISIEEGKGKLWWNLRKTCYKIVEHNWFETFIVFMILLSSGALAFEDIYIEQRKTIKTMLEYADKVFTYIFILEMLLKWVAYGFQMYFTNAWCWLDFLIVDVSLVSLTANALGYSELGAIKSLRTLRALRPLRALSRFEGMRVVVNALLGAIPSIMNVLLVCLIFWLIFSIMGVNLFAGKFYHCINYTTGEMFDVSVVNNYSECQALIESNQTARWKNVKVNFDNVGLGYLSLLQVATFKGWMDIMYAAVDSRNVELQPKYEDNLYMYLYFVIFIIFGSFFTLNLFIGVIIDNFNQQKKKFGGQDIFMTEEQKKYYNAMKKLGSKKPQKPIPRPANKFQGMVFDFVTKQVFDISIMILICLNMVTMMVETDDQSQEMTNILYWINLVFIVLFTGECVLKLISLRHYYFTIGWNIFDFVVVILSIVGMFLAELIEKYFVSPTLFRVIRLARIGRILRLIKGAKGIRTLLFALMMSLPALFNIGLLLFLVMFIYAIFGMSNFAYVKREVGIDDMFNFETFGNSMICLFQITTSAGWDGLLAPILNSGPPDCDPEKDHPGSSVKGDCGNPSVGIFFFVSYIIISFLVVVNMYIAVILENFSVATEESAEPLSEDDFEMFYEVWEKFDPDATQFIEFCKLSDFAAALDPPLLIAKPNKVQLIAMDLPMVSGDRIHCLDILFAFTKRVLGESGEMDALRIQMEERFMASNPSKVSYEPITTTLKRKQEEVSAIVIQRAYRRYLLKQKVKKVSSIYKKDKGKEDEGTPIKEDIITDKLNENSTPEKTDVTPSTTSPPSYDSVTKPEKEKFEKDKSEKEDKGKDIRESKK
T4 sequence (P35499 whole entry): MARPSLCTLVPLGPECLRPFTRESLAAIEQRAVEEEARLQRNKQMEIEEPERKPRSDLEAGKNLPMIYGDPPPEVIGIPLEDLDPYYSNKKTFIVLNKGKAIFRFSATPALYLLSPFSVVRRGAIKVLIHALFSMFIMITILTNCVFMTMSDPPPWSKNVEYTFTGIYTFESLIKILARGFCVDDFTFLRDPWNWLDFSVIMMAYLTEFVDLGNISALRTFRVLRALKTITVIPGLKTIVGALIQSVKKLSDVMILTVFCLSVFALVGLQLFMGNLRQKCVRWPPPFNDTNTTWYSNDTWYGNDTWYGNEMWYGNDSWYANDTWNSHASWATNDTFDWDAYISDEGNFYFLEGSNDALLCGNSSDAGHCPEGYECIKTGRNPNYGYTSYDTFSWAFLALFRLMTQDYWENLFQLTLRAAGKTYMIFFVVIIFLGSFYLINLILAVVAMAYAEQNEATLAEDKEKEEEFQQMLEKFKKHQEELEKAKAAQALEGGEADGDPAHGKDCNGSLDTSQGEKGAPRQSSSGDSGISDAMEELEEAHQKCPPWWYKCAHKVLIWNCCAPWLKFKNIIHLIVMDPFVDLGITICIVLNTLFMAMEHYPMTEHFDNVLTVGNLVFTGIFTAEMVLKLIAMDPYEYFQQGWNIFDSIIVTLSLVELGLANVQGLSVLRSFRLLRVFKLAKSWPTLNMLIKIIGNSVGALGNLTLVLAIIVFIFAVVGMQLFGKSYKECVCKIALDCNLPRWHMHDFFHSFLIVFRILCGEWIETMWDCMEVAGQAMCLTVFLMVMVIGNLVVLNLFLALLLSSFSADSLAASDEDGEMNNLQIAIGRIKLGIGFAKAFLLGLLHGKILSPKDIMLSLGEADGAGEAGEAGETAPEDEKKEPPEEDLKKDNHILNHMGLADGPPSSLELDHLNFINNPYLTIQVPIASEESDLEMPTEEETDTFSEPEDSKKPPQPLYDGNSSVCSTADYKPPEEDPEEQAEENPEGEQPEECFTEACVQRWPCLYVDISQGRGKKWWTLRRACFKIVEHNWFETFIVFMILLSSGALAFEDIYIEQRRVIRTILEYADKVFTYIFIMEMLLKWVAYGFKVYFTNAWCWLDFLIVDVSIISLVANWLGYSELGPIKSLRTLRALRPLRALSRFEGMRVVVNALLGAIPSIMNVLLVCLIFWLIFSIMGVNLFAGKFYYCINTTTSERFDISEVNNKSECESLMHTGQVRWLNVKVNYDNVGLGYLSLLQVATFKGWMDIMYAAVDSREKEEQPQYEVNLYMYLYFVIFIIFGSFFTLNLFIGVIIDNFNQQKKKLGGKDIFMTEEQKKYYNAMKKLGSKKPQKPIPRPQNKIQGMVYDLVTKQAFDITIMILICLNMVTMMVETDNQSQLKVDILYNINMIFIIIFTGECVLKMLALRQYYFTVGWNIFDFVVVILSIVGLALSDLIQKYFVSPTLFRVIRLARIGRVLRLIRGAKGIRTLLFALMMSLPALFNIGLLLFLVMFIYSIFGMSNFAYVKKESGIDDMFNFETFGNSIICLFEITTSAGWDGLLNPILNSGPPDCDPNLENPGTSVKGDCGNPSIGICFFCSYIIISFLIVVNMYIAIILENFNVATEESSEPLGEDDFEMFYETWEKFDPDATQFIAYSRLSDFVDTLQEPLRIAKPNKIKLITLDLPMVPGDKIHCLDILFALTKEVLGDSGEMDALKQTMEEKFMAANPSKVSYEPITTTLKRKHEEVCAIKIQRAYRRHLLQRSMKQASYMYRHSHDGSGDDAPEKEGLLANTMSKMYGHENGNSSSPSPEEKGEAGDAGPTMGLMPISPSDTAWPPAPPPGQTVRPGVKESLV

In the case of Cc1cc2nc(N)oc2c2ccccc12 [SKA-121, 5-Methylnaphtho[2,1-d]oxazol-2-amine], the “KCa1.1 % of current” value (hKCa1.1; at 50 μM) is reported as 115% of current at 50 μM (3), the inhibition at 50 µM (mKV1.3; at 50 μM) is reported as 27.5 ± 7.2% and the inhibition at 50 µM (mNaV1.2; at 50 μM) is reported as 15.2 ± 12.7%. The inhibition at 50 µM (hNaV1.4; at 50 μM) was 25.7 ± 1.3%, the inhibition at 50 µM (hCaV1.2; at 50 μM) was 48.9 ± 2.7% and the oral availability ([1]; […] mg/kg oral vs i.v., mice) was “roughly 25%”. It also gave a concentration at 1 h ([1]; male, C57Bl/6J, mouse, plasma, 10 mg/kg, […] mg/kg oral, mice, read-out: plasma level at 1 h after oral administration) of 1100 ± 100 nM, a concentration at 8 h ([1]; male, C57Bl/6J, mouse, plasma, 10 mg/kg, […] mg/kg oral, mice, read-out: plasma level at 8 h after oral administration) of 27 ± 5 nM and a concentration at 5 min ([1]; male, C57Bl/6J, mouse, plasma, intravenous, 10 mg/kg, […] mg/kg i.v., mice, read-out: total plasma concentration at 5 min) of 21300 ± 2400 nM. For the same molecule, the concentration at 1 h ([1]; male, C57Bl/6J, mouse, plasma, intravenous, 10 mg/kg, […] mg/kg i.v., mice, read-out: total plasma concentration at 1 h) was 483 ± 231 nM, the concentration at 4 h ([1]; male, C57Bl/6J, mouse, plasma, intravenous, 10 mg/kg, […] mg/kg i.v., mice, read-out: total plasma concentration at 4 h) was 53 ± 44 nM and the half-life ([1]; male, C57Bl/6J, mouse, plasma, 10 mg/kg, mice, read-out: half-life) was about 0.333 h. It also gave a Kp ([1]; male, C57Bl/6J, mouse, mice, averaged paired brain and plasma samples, read-out: brain/plasma ratio) of 3.3 ± 2.9.

With Cc1cc2sc(N)nc2c2ccccc12 [SKA-111, 5-methylnaphtho[1,2-d]thiazol-2-amine] the “KCa1.1 % of current” value (hKCa1.1; at 25 μM) was 120% of current at 25 μM (3), the inhibition at 25 µM (mKV1.3; at 25 μM) was 28.5 ± 2.3% and the inhibition at 25 µM (mNaV1.2; at 25 μM) was 19.5 ± 6.9%. For the same molecule, the inhibition at 25 µM (hNaV1.4; at 25 μM) was 33.4 ± 10.5%, the inhibition at 25 µM (hCaV1.2; at 25 μM) was 49.5 ± 17% and the “distribution from blood into tissue” value ([1]; […] mg/kg i.v., mice) was about 2 min. For the same molecule, the “total brain concentrations probably achieved” value ([1]; i.p. 100 mg/kg, for hours) was 10 to 30 µM and the half-life ([1]; male, C57Bl/6J, mouse, plasma, 10 mg/kg, mice, read-out: elimination half-life (converted)) was 4.7 ± 0.6 h.
